“And” between values parts separate entries of the source, which are not always exact repeats. Identical values can stand only once. Where only a bound is given, the exact number is not on record here.

In the assay the test system is 379773-124-R-J2-PDC spheroid viability. The assay can be described thus: Anticancer human tumor 379773-124-R-J2-PDC patient-derived endometrial carcinoma cell line growth inhibition [POLQ]. The conditions noted are these: spheroids with HUVEC and MSC; for viability, T/C: stronger effect = lower value. A digest of the protocol:
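Growth inhibition in 3D: complex spheroids (tumor PDC, HUVEC, MSC) treated with POLQ inhibitor combinations; where Cmax unknown, highest tested concentration 10 microM, except SN-38 at 1 microM.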

Where [1] appears, read: curve of first compound, second compound 0.0316 µM.
The mark [2] stands for this setting: curve of first compound, second compound 0.1 µM.
Where [3] appears, read: curve of first compound, second compound 0.316 µM.
[4] abbreviates: curve of first compound, second compound 1 µM.
The mark [5] stands for this setting: curve of first compound, second compound 3.16 µM.
Setting [6] is: curve of first compound, second compound 10 µM.
Setting [7] is: second compound 0.0316 µM, first compound 0.0316 µM.
[8] abbreviates: second compound 0.0316 µM, first compound 0.1 µM.
Where [9] appears, read: second compound 0.0316 µM, first compound 0.316 µM.
The mark [10] stands for this setting: second compound 0.0316 µM, first compound 1 µM.
Setting [11] is: second compound 0.0316 µM, first compound 3.16 µM.
[12] abbreviates: second compound 0.0316 µM, first compound 10 µM.
Setting [13] is: second compound 0.1 µM, first compound 0.0316 µM.
Setting [14] is: second compound 0.1 µM, first compound 0.1 µM.
The mark [15] stands for this setting: second compound 0.1 µM, first compound 0.316 µM.
The mark [16] stands for this setting: second compound 0.1 µM, first compound 1 µM.
Setting [17] is: second compound 0.1 µM, first compound 3.16 µM.
[18] abbreviates: second compound 0.1 µM, first compound 10 µM.
Where [19] appears, read: second compound 0.316 µM, first compound 0.0316 µM.
Where [20] appears, read: second compound 0.316 µM, first compound 0.1 µM.
Setting [21] is: second compound 0.316 µM, first compound 0.316 µM.
Where [22] appears, read: second compound 0.316 µM, first compound 1 µM.
The mark [23] stands for this setting: second compound 0.316 µM, first compound 3.16 µM.
The mark [24] stands for this setting: second compound 0.316 µM, first compound 10 µM.
Setting [25] is: second compound 1 µM, first compound 0.0316 µM.
[26] abbreviates: second compound 1 µM, first compound 0.1 µM.
Where [27] appears, read: second compound 1 µM, first compound 0.316 µM.
Setting [28] is: second compound 1 µM, first compound 1 µM.
Where [29] appears, read: second compound 1 µM, first compound 3.16 µM.
Where [30] appears, read: second compound 1 µM, first compound 10 µM.
[31] abbreviates: second compound 3.16 µM, first compound 0.0316 µM.
Where [32] appears, read: second compound 3.16 µM, first compound 0.1 µM.
The mark [33] stands for this setting: second compound 3.16 µM, first compound 0.316 µM.
The mark [34] stands for this setting: second compound 3.16 µM, first compound 1 µM.
Where [35] appears, read: second compound 3.16 µM, first compound 3.16 µM.
[36] abbreviates: second compound 3.16 µM, first compound 10 µM.
Where [37] appears, read: second compound 10 µM, first compound 0.0316 µM.
Where [38] appears, read: second compound 10 µM, first compound 0.1 µM.
[39] abbreviates: second compound 10 µM, first compound 0.316 µM.
Where [40] appears, read: second compound 10 µM, first compound 1 µM.
Setting [41] is: second compound 10 µM, first compound 3.16 µM.
[42] abbreviates: second compound 10 µM, first compound 10 µM.
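Also: spheroids exposed to drugs for seven days before readout.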
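For viability, T/C in this document: percent viability relative to DMSO vehicle control taken as 100%.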

On to `CC(=O)O[C@H]1C(=O)[C@@]2(C)[C@H]([C@H](OC(=O)c3ccccc3)[C@]3(O)C[C@H](OC(=O)[C@H](O)[C@@H](NC(=O)c4ccccc4)c4ccccc4)C(C)=C1C3(C)C)[C@]1(OC(C)=O)CO[C@@H]1C[C@@H]2O`, for which the viability, T/C – broadly, the ratio of treated to control – was 21.2% and 20.1% and 16.9% (compound 0.00949 µM); 7.51% and 10.1% and 8.5% (compound 0.03 µM); 14.2% and 12.2% and 9.35% (compound 0.0949 µM); 10.6% and 11.8% and 8.52% (compound 0.3 µM); 9.35% and 10.1% and 7.28% (compound 0.949 µM); 7.9% and 9.86% and 6.94% (compound 3 µM). For the same molecule, the IC50 – broadly, the point on the concentration scale where inhibition reaches its midpoint – (curve of compound) is under 0.00949 µM.

As for `O=c1[nH]cc(F)c(=O)[nH]1`, the viability, T/C was 99.4% and 89.8% and 84.2% (compound 0.0316 µM); 81.4% and 94.1% and 74.5% (compound 0.1 µM); 87.7% and 83.8% and 83.7% (compound 0.316 µM); 93.3% and 88.7% and 90.6% (compound 1 µM); 80.8% (2×) and 87.2% (compound 3.16 µM); 54.3% and 51.3% and 50.9% (compound 10 µM). The 50% inhibitory concentration (IC50) (curve of compound) is over 10 µM.

For the molecule `CNCc1ccc(-c2[nH]c3cc(F)cc4c3c2CCNC4=O)cc1` + COC1C(OC(N)=O)C(O)C(Oc2ccc3c(O)c(NC(=O)c4ccc(O)c(CC=C(C)C)c4)c(=O)oc3c2C)OC1(C)C, the IC50 was over 10 µM under setting [1]; over 10 µM under setting [2]; over 10 µM under setting [3]; over 10 µM under setting [4]; over 10 µM under setting [5]; over 10 µM under setting [6]. The viability, T/C under setting [7] is 104%; the viability, T/C under setting [8] is 86.1%; the viability, T/C under setting [9] is 84.5%; the viability, T/C under setting [10] was 74.5%; the viability, T/C under setting [11] is 82.5%; the viability, T/C under setting [12] is 78.1%. Further, the viability, T/C is, setting by setting: under setting [13], 102%; under setting [14], 86.7%; under setting [15], 90.5%; under setting [16], 88.2%; under setting [17], 87.8%; under setting [18], 82.9%. Also, the viability, T/C reads like this: under setting [19], 95.5%; under setting [20], 96.8%; under setting [21], 87.8%; under setting [22], 93.2%; under setting [23], 77.2%; under setting [24], 78.4%. Besides, the viability, T/C was 91.8% under setting [25]; 98.2% under setting [26]; 78.1% under setting [27]; 86.1% under setting [28]; 82.6% under setting [29]; 67.3% under setting [30]. In addition, the viability, T/C is, setting by setting: under setting [31], 79.8%; under setting [32], 79.9%; under setting [33], 76.2%; under setting [34], 85.1%; under setting [35], 80.1%; under setting [36], 78.3%. Besides, the viability, T/C by setting is: under setting [37], 80.3%; under setting [38], 81.7%; under setting [39], 96.5%; under setting [40], 75.5%; under setting [41], 76.7%; under setting [42], 65.7%.

For the molecule `COc1cc(C2c3cc4c(cc3C(OC3OC5COC(C)OC5C(O)C3O)C3COC(=O)C23)OCO4)cc(OC)c1O` (stereo not given), the viability, T/C (compound 0.0316 µM) is 84.9% and 99% and 87%; the viability, T/C (compound 0.1 µM) is 86.8% and 96.4% and 75.6%; the viability, T/C (compound 0.316 µM) is 89.5% and 90% and 75.2%; the viability, T/C (compound 1 µM) was 64.8% and 72.1% and 65%; the viability, T/C (compound 3.16 µM) was 14.7% and 19.1% and 14.3%; the viability, T/C (compound 10 µM) is 10.1% (2×) and 14.7%. Also, the IC50 (curve of compound) was 1.4 µM and 1.62 µM.

Take `CCc1cc2c(N3CCc4c(cc(Cn5ccnc5)cc4-c4cn(C)nc4C(F)(F)F)C3=O)ccnc2c(OC)n1` + Cc1cccc(N(C)C(=O)C2C(O)CCN2c2nc(C)cc(C(F)(F)F)c2C#N)c1: the IC50 under setting [1] is over 10 µM; the IC50 under setting [2] was over 10 µM; the IC50 under setting [3] was over 10 µM; the IC50 under setting [4] was over 10 µM; the IC50 under setting [5] was over 10 µM; the IC50 under setting [6] turned out to be 3.73 µM. Also, the viability, T/C is, setting by setting: under setting [7], 76.1%; under setting [8], 68.8%; under setting [9], 73%; under setting [10], 63.2%; under setting [11], 59.1%; under setting [12], 54.5%. The viability, T/C was 81.9% under setting [13]; 71.1% under setting [14]; 64.3% under setting [15]; 69.6% under setting [16]; 55.2% under setting [17]; 50% under setting [18]. The viability, T/C was 71.9% under setting [19]; 85.3% under setting [20]; 70.2% under setting [21]; 64.8% under setting [22]; 55.5% under setting [23]; 53% under setting [24]. The viability, T/C under setting [25] is 83.6%; the viability, T/C under setting [26] is 68.9%; the viability, T/C under setting [27] was 65%; the viability, T/C under setting [28] is 63.7%; the viability, T/C under setting [29] is 55.9%; the viability, T/C under setting [30] is 50.2%. The viability, T/C was 73.5% under setting [31]; 80.8% under setting [32]; 60.9% under setting [33]; 65.2% under setting [34]; 58.8% under setting [35]; 55.7% under setting [36]. Further, the viability, T/C reads like this: under setting [37], 69.6%; under setting [38], 68.2%; under setting [39], 62%; under setting [40], 57.9%; under setting [41], 50.1%; under setting [42], 44.2%.

The record behind these values is PubChem BioAssay AID1963848 (Molecular Pharmacology Branch, DTP, NCI, 2024).
